Data reported in PubChem BioAssay (NCI).
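Method: 48-hour compound exposure of cells in 96-well plates, five concentrations, linear interpolation of endpoints. TGI: concentration producing complete growth inhibition.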

Experiments:
Assay in all cases: NCI-60 cell line screen, 48 h
OVCAR-3 ovarian = test system: OVCAR-3 ovarian
HCT-15 colon = test system: HCT-15 colon
OVCAR-4 ovarian = test system: OVCAR-4 ovarian
SF-539 CNS = test system: SF-539 CNS
SK-MEL-28 melanoma = test system: SK-MEL-28 melanoma
SNB-75 CNS = test system: SNB-75 CNS
SK-MEL-5 melanoma = test system: SK-MEL-5 melanoma
A549 NSCLC = test system: A549 NSCLC
HT29 colon = test system: HT29 colon
CCRF-CEM leukemia = test system: CCRF-CEM leukemia
HCC-2998 colon = test system: HCC-2998 colon
SK-MEL-2 melanoma = test system: SK-MEL-2 melanoma
DLD-1 colon = test system: DLD-1 colon
COLO 205 colon = test system: COLO 205 colon
TK-10 renal = test system: TK-10 renal
NCI-H522 lung = test system: NCI-H522 lung
KM12 colon = test system: KM12 colon
HOP-18 NSCLC = test system: HOP-18 NSCLC
HL-60(TB) leukemia = test system: HL-60(TB) leukemia
DMS 273 small cell lung = test system: DMS 273 small cell lung
UACC-257 melanoma = test system: UACC-257 melanoma
MALME-3M melanoma = test system: MALME-3M melanoma
MOLT-4 leukemia = test system: MOLT-4 leukemia
SK-OV-3 ovarian = test system: SK-OV-3 ovarian
XF 498 CNS = test system: XF 498 CNS
M19-MEL melanoma = test system: M19-MEL melanoma
UACC-62 melanoma = test system: UACC-62 melanoma
SF-268 CNS = test system: SF-268 CNS
LOX IMVI melanoma = test system: LOX IMVI melanoma
NCI-H460 lung = test system: NCI-H460 lung
A498 renal = test system: A498 renal
OVCAR-5 ovarian = test system: OVCAR-5 ovarian
SW-620 colon = test system: SW-620 colon
EKVX NSCLC = test system: EKVX NSCLC
LXFL 529 NSCLC = test system: LXFL 529 NSCLC
SN12C renal = test system: SN12C renal
786-0 renal = test system: 786-0 renal
SF-295 CNS = test system: SF-295 CNS
HOP-92 NSCLC = test system: HOP-92 NSCLC
ACHN renal = test system: ACHN renal
M14 melanoma = test system: M14 melanoma
RXF 393 renal = test system: RXF 393 renal
OVCAR-8 ovarian = test system: OVCAR-8 ovarian
U251 CNS = test system: U251 CNS
K-562 leukemia = test system: K-562 leukemia
IGROV1 ovarian = test system: IGROV1 ovarian
SNB-19 CNS = test system: SNB-19 CNS
UO-31 renal = test system: UO-31 renal
KM20L2 colon = test system: KM20L2 colon
RPMI-8226 leukemia = test system: RPMI-8226 leukemia
CAKI-1 renal = test system: CAKI-1 renal
NCI-H23 lung = test system: NCI-H23 lung
HCT-116 colon = test system: HCT-116 colon
HOP-62 NSCLC = test system: HOP-62 NSCLC
NCI-H226 lung = test system: NCI-H226 lung
DMS 114 small cell lung = test system: DMS 114 small cell lung
SNB-78 CNS = test system: SNB-78 CNS

Measured: TGI

C[C@H](NS(=O)(=O)c1ccc(NC(=O)c2ccccc2)cc1)C(=O)O
> 100 µM: OVCAR-3 ovarian | HCT-15 colon | OVCAR-4 ovarian | SF-539 CNS | SK-MEL-28 melanoma | SNB-75 CNS | SK-MEL-5 melanoma | A549 NSCLC | HT29 colon | CCRF-CEM leukemia | HCC-2998 colon | SK-MEL-2 melanoma | DLD-1 colon | COLO 205 colon | TK-10 renal | NCI-H522 lung | KM12 colon | HOP-18 NSCLC | HL-60(TB) leukemia | DMS 273 small cell lung | UACC-257 melanoma | MALME-3M melanoma | MOLT-4 leukemia | SK-OV-3 ovarian | XF 498 CNS | M19-MEL melanoma | UACC-62 melanoma | SF-268 CNS | LOX IMVI melanoma | NCI-H460 lung | A498 renal | OVCAR-5 ovarian | SW-620 colon | EKVX NSCLC | LXFL 529 NSCLC | SN12C renal | 786-0 renal | SF-295 CNS | HOP-92 NSCLC | ACHN renal | M14 melanoma | RXF 393 renal | OVCAR-8 ovarian | U251 CNS | K-562 leukemia | IGROV1 ovarian | SNB-19 CNS | UO-31 renal | KM20L2 colon | RPMI-8226 leukemia | CAKI-1 renal | NCI-H23 lung

O=c1ccc2ccc(O)c3c4c(=O)ccc5ccc(O)c(c1c23)c54
3.46 µM: NCI-H23 lung
3.34 µM: SK-MEL-2 melanoma
3.22 µM: M14 melanoma
6.71 µM: UACC-257 melanoma
2.42 µM: RXF 393 renal
4.37 µM: SN12C renal
8.46 µM: EKVX NSCLC
6.75 µM: ACHN renal
2.69 µM: HCT-15 colon
8.61 µM: SK-OV-3 ovarian
9.29 µM: SF-295 CNS
10.7 µM: OVCAR-8 ovarian
3.97 µM: DMS 273 small cell lung
1.83 µM: MALME-3M melanoma
11.7 µM: OVCAR-3 ovarian
2.16 µM: M19-MEL melanoma
4.86 µM: HOP-62 NSCLC
9.12 µM: RPMI-8226 leukemia
4.85 µM: SNB-19 CNS
5.86 µM: TK-10 renal
3.08 µM: NCI-H522 lung
3.2 µM: SF-539 CNS
3.43 µM: KM12 colon
2.59 µM: SK-MEL-5 melanoma
4.81 µM: 786-0 renal
2.63 µM: LOX IMVI melanoma
5.08 µM: SW-620 colon
3.3 µM: U251 CNS
3.71 µM: UO-31 renal
3.77 µM: CCRF-CEM leukemia
12.2 µM: A549 NSCLC
3.63 µM: DMS 114 small cell lung
3.64 µM: HL-60(TB) leukemia | IGROV1 ovarian
3.27 µM: XF 498 CNS
3.73 µM: COLO 205 colon
11.6 µM: NCI-H460 lung
8.53 µM: MOLT-4 leukemia
3.72 µM: HOP-18 NSCLC
5.59 µM: K-562 leukemia
2.83 µM: HCT-116 colon
3.13 µM: DLD-1 colon
1.65 µM: UACC-62 melanoma
5.28 µM: SK-MEL-28 melanoma | NCI-H226 lung

COC(=O)/C(C#N)=C1\CCC(Nc2cccc(C(F)(F)F)c2)N1C (stereo unspecified)
> 100 µM: OVCAR-3 ovarian | OVCAR-4 ovarian | SF-539 CNS | SK-MEL-28 melanoma | SNB-75 CNS | A549 NSCLC | HT29 colon | HCT-116 colon | CCRF-CEM leukemia | HCC-2998 colon | HOP-62 NSCLC | SK-MEL-2 melanoma | NCI-H226 lung | DLD-1 colon | TK-10 renal | NCI-H522 lung | SNB-78 CNS | KM12 colon | HOP-18 NSCLC | HL-60(TB) leukemia | UACC-257 melanoma | MALME-3M melanoma | MOLT-4 leukemia | SK-OV-3 ovarian | XF 498 CNS | UACC-62 melanoma | SF-268 CNS | LOX IMVI melanoma | NCI-H460 lung | OVCAR-5 ovarian | SW-620 colon | EKVX NSCLC | LXFL 529 NSCLC | SN12C renal | 786-0 renal | SF-295 CNS | ACHN renal | M14 melanoma | RXF 393 renal | OVCAR-8 ovarian | U251 CNS | K-562 leukemia | IGROV1 ovarian | SNB-19 CNS | UO-31 renal | KM20L2 colon | RPMI-8226 leukemia | CAKI-1 renal | NCI-H23 lung
